Experimental data as given in the supplement of paper PMC10307832.

Key:
Test in all cases: relative viability (nuclei count vs DMSO), 5 days (fraction); higher = more cells survive
[1] = compound: C1COCCN1C2=NC(=NC3=C2OC4=C3C=CC=N4)C5=CC(=CC=C5)NC(=O)C6=CN=C(C=C6)N + CC(=O)Nc1cccc(-n2c(=O)n(C3CC3)c(=O)c3c(Nc4ccc(I)cc4F)n(C)c(=O)c(C)c32)c1 [Trametinib] (partner 0.02 µM)
In short: (§1)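 Each reported value is a median over duplicate plates. It expresses relative viability: treated-well nuclei count divided by vehicle-well nuclei count. Lung cancer cell lines in 1536-well plates were dosed by pin tool a day after seeding, alone with one drug or with a fixed anchor-drug dose plus five library-drug doses (not always all listed) in √10 steps, and nuclei were counted after 5 days.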

[2] = compound: C1COCCN1C2=NC(=NC3=C2OC4=C3C=CC=N4)C5=CC(=CC=C5)NC(=O)C6=CN=C(C=C6)N + CS(=O)(=O)N1CCN(Cc2cc3nc(-c4cccc5[nH]ncc45)nc(N4CCOCC4)c3s2)CC1 [Pictilisib] (partner 1 µM)
In short: as §1

[3] = compound: CN1CCC(CNc2ccc3ncc(-c4cccc(OC(F)(F)F)c4)n3n2)CC1 [SGI-1776] + Cc1nc(NC(=O)N2CCC[C@H]2C(N)=O)sc1-c1ccnc(C(C)(C)C(F)(F)F)c1 [Alpelisib] (partner 2 µM)
In short: as §1

[4] = compound: Nc1ccccc1NC(=O)c1ccc(CNC(=O)OCc2cccnc2)cc1 [Entinostat] + N=C(N)NC(=N)NCCc1ccccc1 [Phenformin] (partner 250 µM)
In short: as §1

Cell Line	relative viability ([1]; first compound 0.02 µM)	relative viability ([1]; first compound 0.06325 µM)	relative viability ([1]; first compound 0.2 µM)	relative viability ([1]; first compound 0.6325 µM)	relative viability ([1]; first compound 2 µM)	relative viability ([2]; first compound 0.02 µM)	relative viability ([2]; first compound 0.06325 µM)	relative viability ([2]; first compound 0.2 µM)	relative viability ([2]; first compound 0.6325 µM)	relative viability ([2]; first compound 2 µM)	relative viability ([3]; first compound 0.08 µM)	relative viability ([3]; first compound 0.8 µM)	relative viability ([3]; first compound 2.53 µM)	relative viability ([3]; first compound 8 µM)	relative viability ([4]; first compound 0.02 µM)	relative viability ([4]; first compound 0.06325 µM)	relative viability ([4]; first compound 0.2 µM)	relative viability ([4]; first compound 0.6325 µM)	relative viability ([4]; first compound 2 µM)
NCI-H322M	0.449	0.519	0.521	0.412	0.475	0.508	0.542	0.474	0.585	0.484	0.883	0.934	0.928	0.756	0.799	0.963	0.99	0.809	0.664
NCI-H358	0.132	0.138	0.122	0.127	0.244	0.287	0.302	0.288	0.328	0.296	0.786	0.837	0.751	0.405	0.335	0.546	0.506	0.245	0.108
NCI-H441	0.453	0.423	0.29	0.337	0.312	0.564	0.585	0.427	0.447	0.345	0.751	0.478	0.697	0.588	0.679	1.03	0.757	0.397	0.184
NCI-H460	0.166	0.263	0.142	0.133	0.0197	0.411	0.384	0.255	0.355	0.294	0.488	0.481	0.433	0.121	0.511	0.479	0.298	0.0601	0.0314
NCI-H520	0.493	0.806	0.758	0.528	0.494	0.302	0.327	0.274	0.293	0.179	0.928	0.94	0.914	0.759	0.497	0.723	0.701	0.615	0.49
NCI-H596	0.772	0.87	0.735	0.724	0.593	0.356	0.386	0.374	0.315	0.407	0.529	0.439	0.357	0.349	0.752	0.74	0.823	0.734	0.554
NCI-H647	0.414	0.483	0.419	0.378	0.234	0.465	0.483	0.418	0.353	0.339	1.31	1.15	1.1	0.558	0.54	0.555	0.405	0.158	0.0748
NCI-H650	0.923	1.05	0.951	0.888	0.796	0.948	0.947	0.861	0.77	0.741	1.19	1.04	1.04	0.921	0.491	0.466	0.431	0.455	0.318
NCI-H661	0.607	0.631	0.534	0.599	0.436	0.441	0.395	0.392	0.375	0.163	0.81	1.06	0.592	0.479	0.281	0.266	0.303	0.269	0.192
NCI-H727	0.378	0.332	0.374	0.416	0.364	0.298	0.335	0.342	0.412	0.285	0.75	0.532	0.655	0.538	0.457	0.689	0.581	0.436	0.43
NCI-H838	0.52	0.529	0.463	0.41	0.298	0.481	0.446	0.45	0.362	0.311	1.1	1.01	0.95	0.874	0.706	0.852	0.677	0.426	0.198
NCI-H1355	0.452	0.427	0.395	0.367	0.372	0.336	0.424	0.413	0.423	0.459	0.835	0.97	0.847	0.66	0.48	0.439	0.502	0.368	0.332
NCI-H1395	0.962	0.956	0.898	1.02	0.875	0.699	0.604	0.569	0.587	0.57	1.09	1.02	0.996	0.631	0.441	0.494	0.421	0.417	0.416
NCI-H1437	0.492	0.551	0.511	0.419	0.224	0.357	0.483	0.41	0.362	0.337	0.867	0.961	0.99	0.634	0.288	0.261	0.199	0.197	0.215
NCI-H1651	0.842	0.867	0.836	0.818	0.731	0.621	0.608	0.68	0.567	0.31	0.97	0.957	0.834	0.752	0.326	0.371	0.453	0.335	0.185
